The source made the active and inactive calls. No cut-off for these calls is given here.
Key:
HCT-116 [1] = assay: Antiproliferative activity against human HCT116 cells after 72 hrs by MTT assay; format: functional, cell-based; conditions: HCT-116, 72 h
HCT-15 = assay: Antiproliferative activity against human HCT15 cells after 72 hrs by MTT assay; format: functional, cell-based; conditions: HCT-15, 72 h
[2] = Antiproliferative activity against human GBM10 cells after 72 hrs by MTT assay; format: functional, cell-based; conditions: GBM10, 72 h
CHO = assay: Cytotoxicity against CHO cells assessed as reduction in cell survival after 72 hrs by MTT assay; format: ADME, cell-based; conditions: Cricetulus griseus
[3] = Selectivity index, ratio of IC50 for CHO cells to IC50 for human HCT116 cells; format: toxicity; conditions: Chinese hamster (CHO cells), CHO cells versus HCT116 cells, read-out: Ratio IC50
[4] = Selectivity index, ratio of IC50 for CHO cells to IC50 for human HCT15 cells; format: toxicity; conditions: Chinese hamster (CHO cells), CHO cells versus HCT15 cells, read-out: Ratio IC50
[5] = Selectivity index, ratio of IC50 for CHO cells to IC50 for human LN229 cells; format: toxicity; conditions: Chinese hamster (CHO cells), CHO cells versus LN229 cells, read-out: Ratio IC50
[6] = Selectivity index, ratio of IC50 for CHO cells to IC50 for human GBM10 cells; format: toxicity; conditions: Chinese hamster (CHO cells), CHO cells versus GBM10 cells, read-out: Ratio IC50
[7] = Selectivity index, ratio of IC50 for CHO cells to IC50 for human A2780 cells; format: toxicity; conditions: Chinese hamster (CHO cells), CHO cells versus A2780 cells, read-out: Ratio IC50
HCT-116 [8] = assay: Cell cycle arrest in human HCT116 cells assessed as accumulation at […] at 1 uM measured after overnight incubation by propidium iodide staining-based flow cytometry (reference value: 9.70%); format: functional
HCT-116 [9] = assay: Cell cycle arrest in human HCT116 cells assessed as accumulation at G1 phase at 2 uM measured after overnight incubation by propidium iodide staining-based flow cytometry (reference value: 63.5%); format: functional
HCT-116 [10] = assay: Cell cycle arrest in human HCT116 cells assessed as accumulation at […] at 2 uM measured after overnight incubation by propidium iodide staining-based flow cytometry (reference value: 9.70%); format: functional
2008 [11] = assay: Cell cycle arrest in human OV2008 cells assessed as accumulation at subG1 phase at 1 uM measured after overnight incubation by propidium iodide staining-based flow cytometry (reference value: 2.64%); format: functional
2008 [12] = assay: Cell cycle arrest in human OV2008 cells assessed as accumulation at G2 phase at 1 uM measured after overnight incubation by propidium iodide staining-based flow cytometry (reference value: 26.9%); format: functional
2008 [13] = assay: Cell cycle arrest in human OV2008 cells assessed as accumulation at G2 phase at 2 uM measured after overnight incubation by propidium iodide staining-based flow cytometry (reference value: 26.9%); format: functional
A2780 [14] = assay: Cell cycle arrest in human A2780 cells assessed as accumulation at subG1 phase at 1 uM measured after overnight incubation by propidium iodide staining-based flow cytometry (reference value: 8.88%); format: functional
A2780 [15] = assay: Cell cycle arrest in human A2780 cells assessed as accumulation at G1 phase at 1 uM measured after overnight incubation by propidium iodide staining-based flow cytometry (reference value: 51.1%); format: functional
A2780 [16] = assay: Cell cycle arrest in human A2780 cells assessed as accumulation at G2 phase at 1 uM measured after overnight incubation by propidium iodide staining-based flow cytometry (reference value: 24.9%); format: functional
HCT-116 [17] = assay: Induction of cellular oxidative stress in human HCT116 cells assessed as increase in ROS levels at 0.5 to 4 uM after 48 hrs by DCFDA dye-based fluorescence microscopic method; format: functional, cell-based
2008 [18] = assay: Induction of cellular oxidative stress in human OV2008 cells assessed as increase in ROS levels at 0.5 to 4 uM after 48 hrs by DCFDA dye-based fluorescence microscopic method; format: functional, cell-based
HCT-116 [19] = assay: Induction of mitotic catastrophe in human HCT116 cells assessed as formation of large with flattened cells at 0.5 to 2 uM measured after overnight incubation by DAPI-staining based microscopy; format: functional, cell-based
2008 [20] = assay: Induction of mitotic catastrophe in human OV2008 cells assessed as formation of large with flattened cells at 0.5 to 2 uM measured after overnight incubation by DAPI-staining based microscopy; format: functional, cell-based
2008 [21] = assay: Induction of apoptosis in human OV2008 cells assessed as cell shrinkage at 0.5 to 2 uM measured after overnight incubation by DAPI-staining based microscopy; format: functional
HCT-116 [22] = assay: Induction of apoptosis in human HCT116 cells assessed as condensation of nuclei at 0.5 to 2 uM measured after overnight incubation by DAPI-staining based microscopy; format: functional, cell-based
2008 [23] = assay: Induction of mitotic catastrophe in human OV2008 cells assessed as formation of de-condensed multiple micronuclei at 0.5 to 2 uM measured after overnight incubation by DAPI-staining based microscopy; format: functional, cell-based
HCT-116 [24] = assay: Induction of apoptosis in human HCT116 cells assessed as early apoptotic cells at 1 uM measured after overnight incubation by mitotracker red/alexa fluor-488 Annexin V staining-based flow cytometry (reference value: 8.36%); format: functional
2008 [25] = assay: Induction of apoptosis in human OV2008 cells assessed as late apoptotic cells at 1 uM measured after overnight incubation by mitotracker red/alexa fluor-488 Annexin V staining-based flow cytometry (reference value: 0.255%); format: functional
A2780 [26] = assay: Induction of apoptosis in human A2780 cells assessed as viable cells at 1 uM measured after overnight incubation by mitotracker red/alexa fluor-488 Annexin V staining-based flow cytometry (reference value: 78.1%); format: functional; conditions: read-out: Activity
A2780 [27] = assay: Induction of apoptosis in human A2780 cells assessed as early apoptotic cells at 1 uM measured after overnight incubation by mitotracker red/alexa fluor-488 Annexin V staining-based flow cytometry (reference value: 11.9%); format: functional
A2780 [28] = assay: Induction of apoptosis in human A2780 cells assessed as late apoptotic cells at 1 uM measured after overnight incubation by mitotracker red/alexa fluor-488 Annexin V staining-based flow cytometry (reference value: 0.015%); format: functional
A2780 [29] = assay: Induction of apoptosis in human A2780 cells assessed as early apoptotic cells at 2 uM measured after overnight incubation by mitotracker red/alexa fluor-488 Annexin V staining-based flow cytometry (reference value: 11.9%); format: functional
A2780 [30] = assay: Induction of apoptosis in human A2780 cells assessed as late apoptotic cells at 2 uM measured after overnight incubation by mitotracker red/alexa fluor-488 Annexin V staining-based flow cytometry (reference value: 0.015%); format: functional
HCT-116 [31] = assay: Antiproliferative activity against bax deficient human HCT116 cells assessed after 72 hrs by MTT assay; format: functional, cell-based; conditions: HCT-116, 72 h
HCT-116 [32] = assay: Antiproliferative activity against dko deficient human HCT116 cells after 72 hrs by MTT assay; format: functional, cell-based; conditions: HCT-116, 72 h
2008 [33] = assay: Induction of morphological changes in human OV2008 cells at 0.1 to 3 uM after 68 hrs by microscopic method; format: functional, cell-based
A2780 [34] = assay: Induction of apoptosis in human A2780 cells assessed as condensation of nuclei at 0.5 to 2 uM measured after overnight incubation by DAPI-staining based microscopy; format: functional, cell-based

IC50 (HCT-116 [1]): 0.6 µM
IC50 (HCT-15): 0.7 µM
IC50 (HCT-116 [31]): 1.2 µM
IC50 (HCT-116 [32]): 1.4 µM
SMILES: COc1ccc(-c2nc(O)c3c4c(sc3n2)CCCC4)cc1
IC50 [2]: 0.8 µM
IC50 (CHO): 14 µM
selectivity ratio [3]: 17 to 28
selectivity ratio [4]: 17 to 28
selectivity ratio [5]: 17 to 28
selectivity ratio [6]: 17 to 28
selectivity ratio [7]: 17 to 28
Activity (HCT-116 [8]): 12.3%
Activity (HCT-116 [9]): 29.5%
Activity (HCT-116 [10]): 10.6%
Activity 2008 [11]: 4.17%
Activity 2008 [12]: 44.6%
Activity 2008 [13]: 41.1%
Activity (A2780 [14]): 7.99%
Activity (A2780 [15]): 20.2%
Activity (A2780 [16]): 57.8%
Activity (HCT-116 [17]): Active
Activity 2008 [18]: Active
Activity (HCT-116 [19]): Active
Activity 2008 [20]: Active
Activity 2008 [21]: Active
Activity (HCT-116 [22]): Active
Activity 2008 [23]: Active
Activity (HCT-116 [24]): 11.6%
Activity 2008 [25]: 0.245%
viability at 1 µM (A2780 [26]): 73.8%
Activity (A2780 [27]): 25.8%
Activity (A2780 [28]): 0%
Activity (A2780 [29]): 51.2%
Activity (A2780 [30]): 0.051%
Activity 2008 [33]: Active
Activity (A2780 [34]): Active

From ChEMBL document CHEMBL4130368, “Thienopyrimidine derivatives exert their anticancer efficacy via apoptosis induction, oxidative stress and mitotic catastrophe” (Eur J Med Chem, 2017)
